Measured values taken from patent US20080249080A1, “Benzodiazepine Derivatives and Uses Thereof on Medical Field” (priority 2005, published 2008).
Entries after “also recorded” stand apart in the source; their conditions may differ.

What was measured:
[1] = test system: RET/C634R and RET/M918T mutants; conditions: cited from earlier work
[2] = test system: RET/E768D, RET/L790F, RET/Y791F, RET/A883F and RET/S891A mutants; conditions: cited from earlier work
RET kinase = RET kinase (Homo sapiens, UniProt P07949); conditions: cited from earlier work
[3] = test system: RET/V804L and RET/V804M mutants; conditions: cited from earlier work
[4] = test system: K562 (human erythroleucemic cell line); assay: Apoptosis by propidium iodide flow cytofluorimetry, K562; type: cell-based; conditions: 10 μM; for percentage of the apoptotic cells in comparison with non treated cells: FIGS. 7-9; for time after which apoptosis is induced: propidium iodide, cytofluorimeter
Method: (§1) The used cellular lines are: K562 (human erythroleucemic cell line), HL60 (human acute promyelocytic leukemia cell line), Jurkat (cell line from acute lymphoblastic T variant leukemias), U937 (acute promyelocitic leukemia cell line) and Glivec resistant K562 (this cell line was supplied kindly by Prof. Carlo Gambacorti-Passerini of the Dipartimento of Clinica Medica, Università of Milan-Bicocca, Monza, Italy) (Gambacorti-Passerini CB, et al, 2002).
(§2) The cell lines were incubated with RS678 and RS779 synthetic compounds at 10 μM concentration for 8, 16 and 24 hours, subsequently washed with PBS and 2.5 mg/ml of propidium iodide. This phenanthridine dye, when intercalated into double-stranded DNA forms a sufficiently stable complex that under excitation emits a red fluorescent light. By means of this coloration it is possible to discriminate in an heterogenous population cells with different DNA contents and therefore to estimate the distribution of the cellular populations based on their DNA contents and whether possibly, as a result from pharmacological treatments, alterations at level of cell cycle have manifested. The labeled cell lines were analyzed using flow FACSort cytofluorimeter.

[5] = test system: Jurkat (cell line from acute lymphoblastic T variant leukemias); assay: Apoptosis by propidium iodide flow cytofluorimetry, Jurkat; type: cell-based; conditions: 10 μM; for percentage of the apoptotic cells in comparison with non treated cells: FIGS. 7-9; for time after which apoptosis is induced: propidium iodide, cytofluorimeter
Method: as §1, §2

caspase 9 [6] = assay: Western blot, caspase 9 activation in K562; type: cell-based, human; conditions: FIG. 3
Method: (§3) Moreover, in order to elucidate the apoptotic pathway triggered by these two substances, Western Blotting experiments and tyrosine-kinase assays were carried out and evidenced that: (i) these compounds activate specific molecules involved in the apoptotic process (caspase 9 and caspase 8) (FIG. 3);

[7] = test system: R2C cell line (rat Leydig tumour); assay: DNA fragmentation, R2C cell line; type: cell-based; conditions: high concentrations (10 μM and 50 μM), FIG. 1 C
caspase 8 = assay: Western blot, caspase 8 activation in K562; type: cell-based, human; conditions: FIG. 3
Method: as §3

[8] = test system: U937 (acute promyelocitic leukemia cell line); assay: Apoptosis by propidium iodide flow cytofluorimetry, U937; type: cell-based; conditions: 10 μM; for percentage of the apoptotic cells in comparison with non treated cells: FIGS. 7-9; for time after which apoptosis is induced: propidium iodide, cytofluorimeter
Method: as §1, §2

[9] = test system: mixed lymphocytic cultures from marrow or peripheral blood of patients suffering from chronic myelogenous leukemia; assay: DNA fragmentation, mixed lymphocytic cultures of CML patients; type: cell-based, human; conditions: 10 μM
K562 cell line [10] = assay: DNA fragmentation, K562 leukemic cell line; type: cell-based, human; conditions: 5, 10, 15 μM, 8, 16 and 24 hours, FIG. 1 A, B
bcr-abl protein [11] = molecular target: T1, bcr-abl protein (Homo sapiens, UniProt P00519); assay: Tyrosine-kinase assay, bcr-abl phosphorylation pattern; type: cell-based; conditions: FIG. 4
T1 construct: endogenous in cells; host or cells: K562; the other entry of the earlier key: BCR (P11274, Breakpoint cluster region protein)
Method: (§4) Moreover, in order to elucidate the apoptotic pathway triggered by these two substances, Western Blotting experiments and tyrosine-kinase assays were carried out and evidenced that: […]

[12] = test system: NPA papillary thyroid carcinoma cell line; assay: DNA fragmentation, NPA; type: cell-based, human; conditions: 10 μM, 24 and 48 hours
Method: (§5) The authors also have tested compounds according to the invention, in particular RS-678 and RS-779 compounds, also on OVCAR3 ovary carcinoma cell lines, ARO anaplastic thyroid and NPA papillary thyroid human carcinoma cell lines.
(§6) Subsequently, the same cell lines, except OVCAR3, were tested with fourteen new synthetic compounds at 10 μM concentration for 24 and 48 hours: eleven induced the expected cellular death.

[13] = test system: OVCAR3 ovary carcinoma cell line; assay: DNA fragmentation, OVCAR3; type: cell-based, human; conditions: 10 μM, 24 and 48 hours
Description: as §5

Glivec resistant K562 = assay: Apoptosis by propidium iodide flow cytofluorimetry, Glivec resistant K562; type: cell-based, human; conditions: 10 μM; for percentage of the apoptotic cells in comparison with non treated cells: FIGS. 7-9; for time after which apoptosis is induced: propidium iodide, cytofluorimeter
Method: as §1, §2

[14] = test system: ARO anaplastic thyroid carcinoma cell line; assay: DNA fragmentation, ARO; type: cell-based, human; conditions: 10 μM, 24 and 48 hours
Method: as §5, §6

[15] = test system: HL60 (human acute promyelocytic leukemia cell line); assay: Apoptosis by propidium iodide flow cytofluorimetry, HL60; type: cell-based; conditions: 10 μM; for percentage of the apoptotic cells in comparison with non treated cells: FIGS. 7-9; for time after which apoptosis is induced: propidium iodide, cytofluorimeter
Method: as §1, §2

bcr-abl protein [16] = assay: Western blot, bcr-abl protein expression; type: cell-based, human; conditions: after 16 hours of treatment; FIG. 4
Method: as §4

K562 cell line [17] = assay: Percentage of apoptosis, K562; type: cell-based, human; conditions: after 24 hours
NPA cell line = assay: Percentage of apoptosis, NPA; type: cell-based, human; conditions: after 24 hours
caspase 9 [18] = assay: Western blot, caspase 9 in CML patient sample; type: cell-based, human; conditions: 24 and 48 hours, FIG. 15
ARO cell line = assay: Percentage of dead cells, ARO; type: cell-based, human; conditions: after 24 hours
[19] = test system: RET/V804L and RET/V804M transformed cells; conditions: same concentration (1 μl of ZD6474); cited from earlier work
[20] = test system: RET/C634R transformed RAT1 fibroblasts; conditions: 1 μl of ZD6474; cited from earlier work
[21] = mixed lymphocytic cultures of CML patients, 8, 16, 24 and 48 hours
[22] = samples from patients (some Glivec resistant), 24, 48 and 72 hours, FIGS. 12-14

T1 sequence (P00519 with tags, fused parts or gaps): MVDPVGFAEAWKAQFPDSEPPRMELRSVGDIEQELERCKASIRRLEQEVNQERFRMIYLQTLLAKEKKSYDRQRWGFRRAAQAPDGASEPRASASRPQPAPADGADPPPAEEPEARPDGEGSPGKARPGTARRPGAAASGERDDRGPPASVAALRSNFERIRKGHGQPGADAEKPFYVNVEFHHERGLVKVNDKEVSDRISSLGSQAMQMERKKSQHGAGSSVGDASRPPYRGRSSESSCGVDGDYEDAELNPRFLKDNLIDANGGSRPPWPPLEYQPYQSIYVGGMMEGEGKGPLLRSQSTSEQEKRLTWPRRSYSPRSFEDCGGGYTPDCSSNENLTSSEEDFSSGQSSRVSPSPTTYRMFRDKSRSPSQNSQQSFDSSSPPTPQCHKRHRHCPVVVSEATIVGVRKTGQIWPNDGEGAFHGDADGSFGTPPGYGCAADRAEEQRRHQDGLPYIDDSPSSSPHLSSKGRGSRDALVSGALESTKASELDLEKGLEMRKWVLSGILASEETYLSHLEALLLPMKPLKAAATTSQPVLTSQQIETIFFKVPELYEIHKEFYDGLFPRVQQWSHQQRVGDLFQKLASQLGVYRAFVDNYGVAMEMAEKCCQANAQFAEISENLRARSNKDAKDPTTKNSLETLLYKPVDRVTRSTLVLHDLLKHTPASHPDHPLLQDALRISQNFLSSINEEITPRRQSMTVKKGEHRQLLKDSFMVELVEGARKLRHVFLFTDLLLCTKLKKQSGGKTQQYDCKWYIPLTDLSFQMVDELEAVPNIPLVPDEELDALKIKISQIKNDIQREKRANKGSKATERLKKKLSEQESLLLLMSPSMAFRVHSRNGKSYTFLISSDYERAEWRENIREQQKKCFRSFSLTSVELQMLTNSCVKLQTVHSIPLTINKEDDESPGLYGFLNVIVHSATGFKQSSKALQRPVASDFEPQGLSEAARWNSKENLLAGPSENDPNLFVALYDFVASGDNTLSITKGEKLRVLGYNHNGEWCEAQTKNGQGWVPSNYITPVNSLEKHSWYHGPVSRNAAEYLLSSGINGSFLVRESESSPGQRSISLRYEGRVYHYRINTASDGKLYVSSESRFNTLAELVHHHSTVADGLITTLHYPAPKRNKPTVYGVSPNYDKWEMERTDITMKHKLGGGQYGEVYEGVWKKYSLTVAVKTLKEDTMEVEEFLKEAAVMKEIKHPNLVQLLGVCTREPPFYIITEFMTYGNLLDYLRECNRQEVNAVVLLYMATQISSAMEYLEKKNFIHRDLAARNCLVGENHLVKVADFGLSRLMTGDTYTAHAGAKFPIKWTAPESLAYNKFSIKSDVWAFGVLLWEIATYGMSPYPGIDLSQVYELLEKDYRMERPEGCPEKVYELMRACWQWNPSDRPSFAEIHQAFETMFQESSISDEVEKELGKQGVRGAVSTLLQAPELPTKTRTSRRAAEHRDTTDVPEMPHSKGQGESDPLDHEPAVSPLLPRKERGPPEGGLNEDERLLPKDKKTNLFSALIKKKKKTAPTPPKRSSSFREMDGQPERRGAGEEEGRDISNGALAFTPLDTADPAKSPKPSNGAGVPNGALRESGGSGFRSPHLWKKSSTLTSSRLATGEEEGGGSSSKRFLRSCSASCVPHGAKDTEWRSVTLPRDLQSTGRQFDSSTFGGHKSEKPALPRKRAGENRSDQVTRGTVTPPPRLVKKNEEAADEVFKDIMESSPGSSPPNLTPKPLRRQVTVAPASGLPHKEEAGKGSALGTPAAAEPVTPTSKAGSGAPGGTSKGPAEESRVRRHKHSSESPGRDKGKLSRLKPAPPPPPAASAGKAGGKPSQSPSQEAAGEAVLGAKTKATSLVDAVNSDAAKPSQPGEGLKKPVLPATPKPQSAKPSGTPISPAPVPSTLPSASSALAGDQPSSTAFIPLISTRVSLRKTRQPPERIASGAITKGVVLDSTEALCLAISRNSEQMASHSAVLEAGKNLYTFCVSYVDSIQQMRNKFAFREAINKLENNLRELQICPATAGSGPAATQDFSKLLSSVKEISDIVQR
Chain of RET kinase (P07949 29-1114): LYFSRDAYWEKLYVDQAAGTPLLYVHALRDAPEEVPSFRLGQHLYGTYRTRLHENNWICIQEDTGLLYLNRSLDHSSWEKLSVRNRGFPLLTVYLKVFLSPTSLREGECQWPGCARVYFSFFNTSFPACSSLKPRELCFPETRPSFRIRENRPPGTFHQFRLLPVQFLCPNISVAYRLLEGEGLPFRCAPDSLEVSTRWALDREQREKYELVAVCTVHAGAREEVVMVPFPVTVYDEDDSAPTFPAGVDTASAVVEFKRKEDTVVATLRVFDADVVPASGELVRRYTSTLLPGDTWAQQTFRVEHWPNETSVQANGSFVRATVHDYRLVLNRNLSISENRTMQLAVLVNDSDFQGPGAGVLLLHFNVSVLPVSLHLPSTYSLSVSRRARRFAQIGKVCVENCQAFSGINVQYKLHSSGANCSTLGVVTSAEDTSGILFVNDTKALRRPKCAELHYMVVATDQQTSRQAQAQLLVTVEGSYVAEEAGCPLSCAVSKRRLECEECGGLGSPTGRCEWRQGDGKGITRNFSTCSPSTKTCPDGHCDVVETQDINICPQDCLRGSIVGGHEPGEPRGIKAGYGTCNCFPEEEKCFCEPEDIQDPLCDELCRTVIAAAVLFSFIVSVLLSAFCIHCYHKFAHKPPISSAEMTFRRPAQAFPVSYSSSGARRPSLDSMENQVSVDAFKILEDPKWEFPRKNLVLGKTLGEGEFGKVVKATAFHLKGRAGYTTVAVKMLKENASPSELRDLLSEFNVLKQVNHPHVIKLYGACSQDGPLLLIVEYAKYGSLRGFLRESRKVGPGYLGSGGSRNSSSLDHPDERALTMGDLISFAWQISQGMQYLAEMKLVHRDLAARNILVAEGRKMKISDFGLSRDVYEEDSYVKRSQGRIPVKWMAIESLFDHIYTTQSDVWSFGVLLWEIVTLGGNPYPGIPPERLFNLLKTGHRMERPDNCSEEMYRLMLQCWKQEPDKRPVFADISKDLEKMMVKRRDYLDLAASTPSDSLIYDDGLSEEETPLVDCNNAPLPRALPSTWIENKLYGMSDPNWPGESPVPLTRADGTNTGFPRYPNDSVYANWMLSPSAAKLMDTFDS

| Structure (SMILES) | block of the transforming activity [1] | inhibition of in vivo self-phosphorylation [2] | sensitivity to the action of inhibitors [3] | percentage of the apoptotic cells in comparison with non treated cells [4] | time after which apoptosis is induced [4] | percentage of the apoptotic cells in comparison with non treated cells [5] | time after which apoptosis is induced [5] | activation of caspase 9 (Western blot) (caspase 9 [6]) | DNA fragmentation [7] | activation of caspase 8 (Western blot) (caspase 8) | percentage of the apoptotic cells in comparison with non treated cells [8] | time after which apoptosis is induced [8] | DNA fragmentation [9, 21] | DNA fragmentation [9, 22] | apoptosis / DNA fragmentation (K562 cell line [10]) | changes in the phosphorylation pattern of the bcr-abl protein (tyrosine-kinase assay) (bcr-abl protein [11]) | DNA fragmentation [12] | DNA fragmentation [13] | percentage of the apoptotic cells in comparison with non treated cells (Glivec resistant K562) | time after which apoptosis is induced (Glivec resistant K562) | other results |
| --- | --- | --- | --- | --- | --- | --- | --- | --- | --- | --- | --- | --- | --- | --- | --- | --- | --- | --- | --- | --- | --- |
| CC(C)(C)n1nc(-c2ccc(Cl)cc2)c2c(N)ncnc21 [PP2] | able to block | inhibited effectively | less sensitive | – | – | – | – | – | – | – | – | – | – | – | – | – | – | – | – | – | inhibiting activity with respect to RET kinase (RET kinase): strong inhibiting activity |
| CCOC(=O)C1Nc2ccccc2S(=O)(=O)n2cccc21 (stereo not shown) [RS-678, ethyl 10,11-dihydropyrrolo[1,2-b][1,2,5]benzothiadiazepine-11-carboxylate 5,5-dioxide] | – | – | – | increase | 8 h | increase | 8 h | activation | does not occur | activation | increase | 8 h | fragmentation of the DNA | DNA fragmentation | able to induce apoptosis; also recorded: DNA fragmentation | not observed | induction of the DNA fragmentation | induction of the DNA fragmentation | increase | 16 h | DNA fragmentation [14]: induction of the DNA fragmentation; percentage of the apoptotic cells in comparison with non treated cells [15]: increase; time after which apoptosis is induced [15]: 8 h; down-regulation of the bcr-abl protein (Western blot) (bcr-abl protein [16]): down-regulation |
| CCOC(=O)C1c2cccn2S(=O)(=O)c2ccccc2N1C(=O)c1ccc(C)cc1 (stereo not shown) [RS-779, ethyl 10,11-dihydro-10-(4-methylbenzoyl)pyrrolo[1,2-b][1,2,5]benzothiadiazepine-11-carboxylate 5,5-dioxide] | – | – | – | increase | 8 h | increase | 8 h | activation | does not occur | activation | increase | 8 h | fragmentation of the DNA | DNA fragmentation | able to induce apoptosis; also recorded: DNA fragmentation | not observed | induction of the DNA fragmentation | induction of the DNA fragmentation | increase | 16 h | percentage of apoptosis (K562 cell line [17]): 70%; percentage of apoptosis (NPA cell line): 50%; activation of caspase 9 (Western blot) (caspase 9 [18]): strong activation; percentage of dead cells (ARO cell line): 45%; DNA fragmentation [14]: induction of the DNA fragmentation; percentage of the apoptotic cells in comparison with non treated cells [15]: increase; time after which apoptosis is induced [15]: 8 h; down-regulation of the bcr-abl protein (Western blot) (bcr-abl protein [16]): down-regulation |
| COc1cc2c(Nc3ccc(Br)cc3F)ncnc2cc1OCC1CCN(C)CC1 [ZD6474] | able to block | inhibited effectively | less sensitive | – | – | – | – | – | – | – | – | – | – | – | – | – | – | – | – | – | growth [19]: no effect; proliferation [20]: reduces strongly |
